Data reported in PubChem BioAssay AID1918952 (Molecular Pharmacology Branch, DTP, NCI, 2023).
pIC50: −log10 of the molar value.

Test system: LG0703-F948-PDC complex spheroid viability
Assay: Anticancer human tumor LG0703-F948-PDC patient-derived lung adenocarcinoma cell line growth inhibition
Details: for pIC50: curve of first compound; for viability, T/C: stronger effect = lower value
How it was run: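 Drug combinations with the LSD1 inhibitor iadademstat tested on tumor cells co-cultured as spheroids with endothelial cells and mesenchymal stem cells. Concentrations descended in half-log increments from clinical Cmax or 10 microM.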

[1] = second compound 0.1 µM, first compound 0.00949 µM
[2] = second compound 0.1 µM, first compound 0.03 µM
[3] = second compound 0.1 µM, first compound 0.0949 µM
[4] = second compound 0.1 µM, first compound 0.3 µM
[5] = second compound 0.316 µM, first compound 0.00949 µM
[6] = second compound 0.316 µM, first compound 0.03 µM
[7] = second compound 0.316 µM, first compound 0.0949 µM
[8] = second compound 0.316 µM, first compound 0.3 µM
[9] = second compound 1 µM, first compound 0.00949 µM
[10] = second compound 1 µM, first compound 0.03 µM
[11] = second compound 1 µM, first compound 0.0949 µM
[12] = second compound 1 µM, first compound 0.3 µM
[13] = second compound 3.16 µM, first compound 0.00949 µM
[14] = second compound 3.16 µM, first compound 0.03 µM
[15] = second compound 3.16 µM, first compound 0.0949 µM
[16] = second compound 3.16 µM, first compound 0.3 µM
[17] = second compound 10 µM, first compound 0.00949 µM
[18] = second compound 10 µM, first compound 0.03 µM
[19] = second compound 10 µM, first compound 0.0949 µM
[20] = second compound 10 µM, first compound 0.3 µM
[21] = second compound 0.1 µM, first compound 0.000316 µM
[22] = second compound 0.1 µM, first compound 0.001 µM
[23] = second compound 0.1 µM, first compound 0.00316 µM
[24] = second compound 0.1 µM, first compound 0.01 µM
[25] = second compound 0.1 µM, first compound 0.0316 µM
[26] = second compound 0.1 µM, first compound 0.1 µM
[27] = second compound 0.316 µM, first compound 0.000316 µM
[28] = second compound 0.316 µM, first compound 0.001 µM
[29] = second compound 0.316 µM, first compound 0.00316 µM
[30] = second compound 0.316 µM, first compound 0.01 µM
[31] = second compound 0.316 µM, first compound 0.0316 µM
[32] = second compound 0.316 µM, first compound 0.1 µM
[33] = second compound 1 µM, first compound 0.000316 µM
[34] = second compound 1 µM, first compound 0.001 µM
[35] = second compound 1 µM, first compound 0.00316 µM
[36] = second compound 1 µM, first compound 0.01 µM
[37] = second compound 1 µM, first compound 0.0316 µM
[38] = second compound 1 µM, first compound 0.1 µM
[39] = second compound 3.16 µM, first compound 0.000316 µM
[40] = second compound 3.16 µM, first compound 0.001 µM
[41] = second compound 3.16 µM, first compound 0.00316 µM
[42] = second compound 3.16 µM, first compound 0.01 µM
[43] = second compound 3.16 µM, first compound 0.0316 µM
[44] = second compound 3.16 µM, first compound 0.1 µM
[45] = second compound 10 µM, first compound 0.000316 µM
[46] = second compound 10 µM, first compound 0.001 µM
[47] = second compound 10 µM, first compound 0.00316 µM
[48] = second compound 10 µM, first compound 0.01 µM
[49] = second compound 10 µM, first compound 0.0316 µM
[50] = second compound 10 µM, first compound 0.1 µM
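Note: spheroids exposed to agents for seven days before readout.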
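Throughout, for viability, T/C: 100% = DMSO vehicle control wells as normalization base.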

Q: `CCN(c1cc(-c2ccc(CN3CCOCC3)cc2)cc(C(=O)NCc2c(C)cc(C)[nH]c2=O)c1C)C1CCOCC1` + NC1CC1c1ccc(-c2cccc(O)c2)cc1 was tested. Which pIC50 (second compound 0.1 µM) did it give?
A: < 5.52

Q: And the pIC50 (second compound 0.316 µM)?
A: < 5.52

Q: What about the pIC50 (second compound 1 µM) of the same compound?
A: < 5.52

Q: What about the pIC50 (second compound 3.16 µM) of the same compound?
A: < 5.52

Q: What about the pIC50 (second compound 10 µM) of the same compound?
A: < 5.52

Q: What about the viability, T/C [1] of the same compound?
A: 104%

Q: What about the viability, T/C [2] of the same compound?
A: 113%

Q: What about the viability, T/C [3] of the same compound?
A: 93.7%

Q: And the viability, T/C [4]?
A: 105%

Q: And the viability, T/C (second compound 0.1 µM, first compound 0.949 µM)?
A: 107%

Q: What about the viability, T/C (second compound 0.1 µM, first compound 3 µM) of the same compound?
A: 105%

Q: What about the viability, T/C [5] of the same compound?
A: 112%

Q: And the viability, T/C [6]?
A: 93.9%

Q: And the viability, T/C [7]?
A: 101%

Q: What about the viability, T/C [8] of the same compound?
A: 93.6%

Q: What about the viability, T/C (second compound 0.316 µM, first compound 0.949 µM) of the same compound?
A: 102%

Q: And the viability, T/C (second compound 0.316 µM, first compound 3 µM)?
A: 94.9%

Q: And the viability, T/C [9]?
A: 89.3%

Q: What about the viability, T/C [10] of the same compound?
A: 98.8%

Q: What about the viability, T/C [11] of the same compound?
A: 95.6%

Q: What about the viability, T/C [12] of the same compound?
A: 96.2%

Q: What about the viability, T/C (second compound 1 µM, first compound 0.949 µM) of the same compound?
A: 94.7%

Q: What about the viability, T/C (second compound 1 µM, first compound 3 µM) of the same compound?
A: 93.2%

Q: And the viability, T/C [13]?
A: 93.7%

Q: What about the viability, T/C [14] of the same compound?
A: 95.6%

Q: And the viability, T/C [15]?
A: 93.7%

Q: And the viability, T/C [16]?
A: 85.1%

Q: And the viability, T/C (second compound 3.16 µM, first compound 0.949 µM)?
A: 99.7%

Q: And the viability, T/C (second compound 3.16 µM, first compound 3 µM)?
A: 95.2%

Q: What about the viability, T/C [17] of the same compound?
A: 105%

Q: What about the viability, T/C [18] of the same compound?
A: 91.9%

Q: What about the viability, T/C [19] of the same compound?
A: 84.6%

Q: What about the viability, T/C [20] of the same compound?
A: 81.6%

Q: What about the viability, T/C (second compound 10 µM, first compound 0.949 µM) of the same compound?
A: 81.8%

Q: And the viability, T/C (second compound 10 µM, first compound 3 µM)?
A: 86.1%

Q: Which results are given for `CC(C)CC(NC(=O)C(Cc1ccccc1)NC(=O)c1cnccn1)B(O)O` (stereo not given) + NC1CC1c1ccc(-c2cccc(O)c2)cc1?
A: pIC50 (second compound 0.1 µM): > 9.50; pIC50 (second compound 0.316 µM): > 9.50; pIC50 (second compound 1 µM): > 9.50; pIC50 (second compound 3.16 µM): > 9.50; pIC50 (second compound 10 µM): > 9.50; viability, T/C [21]: 6.46%; viability, T/C [22]: 0.12%; viability, T/C [23]: 0.04%; viability, T/C [24]: 0.06%; viability, T/C [25]: 0.03%; viability, T/C [26]: 1.07%; viability, T/C [27]: 7.13%; viability, T/C [28]: 0.36%; viability, T/C [29]: 0.54%; viability, T/C [30]: 0.02%; viability, T/C [31]: 0.31%; viability, T/C [32]: 0.14%; viability, T/C [33]: 4.36%; viability, T/C [34]: 0.11%; viability, T/C [35]: 0.85%; viability, T/C [36]: 0.07%; viability, T/C [37]: 0.95%; viability, T/C [38]: 0.99%; viability, T/C [39]: 4.22%; viability, T/C [40]: 0.74%; viability, T/C [41]: 0.05%; viability, T/C [42]: 0.39%; viability, T/C [43]: 0.09%; viability, T/C [44]: 0.14%; viability, T/C [45]: 1.18%; viability, T/C [46]: 1.11%; viability, T/C [47]: 0.6%; viability, T/C [48]: 1.43%; viability, T/C [49]: 0.9%; viability, T/C [50]: 0.98%

Q: `CC(C)CC(NC(=O)C(Cc1ccccc1)NC(=O)c1cnccn1)B(O)O` (stereo not given) + NC1CCC(NC2CC2c2ccccc2)CC1 was tested. Which pIC50 (second compound 0.1 µM) did it give?
A: > 9.50

Q: What about the pIC50 (second compound 0.316 µM) of the same compound?
A: > 9.50

Q: What about the pIC50 (second compound 1 µM) of the same compound?
A: > 9.50

Q: And the pIC50 (second compound 3.16 µM)?
A: > 9.50

Q: What about the pIC50 (second compound 10 µM) of the same compound?
A: > 9.50

Q: What about the viability, T/C [21] of the same compound?
A: 8.14%

Q: What about the viability, T/C [22] of the same compound?
A: 0.63%

Q: What about the viability, T/C [23] of the same compound?
A: 0.43%

Q: What about the viability, T/C [24] of the same compound?
A: 0.05%

Q: What about the viability, T/C [25] of the same compound?
A: 0.04%

Q: What about the viability, T/C [26] of the same compound?
A: 0.13%

Q: And the viability, T/C [27]?
A: 8.59%

Q: And the viability, T/C [28]?
A: 1.33%

Q: What about the viability, T/C [29] of the same compound?
A: 0.03%

Q: And the viability, T/C [30]?
A: 0.82%

Q: And the viability, T/C [31]?
A: 0.07%

Q: And the viability, T/C [32]?
A: 0.11%

Q: What about the viability, T/C [33] of the same compound?
A: 7.45%

Q: And the viability, T/C [34]?
A: 0.3%

Q: What about the viability, T/C [35] of the same compound?
A: 0.12%

Q: What about the viability, T/C [36] of the same compound?
A: 0.06%

Q: What about the viability, T/C [37] of the same compound?
A: 0.02%

Q: And the viability, T/C [38]?
A: 0.1%

Q: And the viability, T/C [39]?
A: 5.46%

Q: And the viability, T/C [40]?
A: 0.14%

Q: What about the viability, T/C [41] of the same compound?
A: 0.04%

Q: And the viability, T/C [42]?
A: 0.1%

Q: And the viability, T/C [43]?
A: 0.03%

Q: What about the viability, T/C [44] of the same compound?
A: 0.12%

Q: And the viability, T/C [45]?
A: 1.9%

Q: And the viability, T/C [46]?
A: 0.49%

Q: And the viability, T/C [47]?
A: 0.29%

Q: And the viability, T/C [48]?
A: 0.18%

Q: And the viability, T/C [49]?
A: 0.13%

Q: And the viability, T/C [50]?
A: 0.25%

Q: `Nc1ccn(C2OC(CO)C(O)C2(F)F)c(=O)n1` (stereo not given) + NC1CC1c1ccc(-c2cccc(O)c2)cc1 was tested. Which pIC50 (second compound 0.1 µM) did it give?
A: 7.90

Q: What about the pIC50 (second compound 0.316 µM) of the same compound?
A: 7.13

Q: What about the pIC50 (second compound 1 µM) of the same compound?
A: 7.00

Q: And the pIC50 (second compound 3.16 µM)?
A: 6.84

Q: What about the pIC50 (second compound 10 µM) of the same compound?
A: < 6.52

Q: What about the viability, T/C (second compound 0.1 µM, first compound 0.000949 µM) of the same compound?
A: 79%

Q: And the viability, T/C (second compound 0.1 µM, first compound 0.003 µM)?
A: 50.8%

Q: What about the viability, T/C [1] of the same compound?
A: 51.9%

Q: What about the viability, T/C [2] of the same compound?
A: 56.6%

Q: And the viability, T/C [3]?
A: 43.9%

Q: What about the viability, T/C [4] of the same compound?
A: 32.3%

Q: And the viability, T/C (second compound 0.316 µM, first compound 0.000949 µM)?
A: 70.2%

Q: What about the viability, T/C (second compound 0.316 µM, first compound 0.003 µM) of the same compound?
A: 63.9%

Q: What about the viability, T/C [5] of the same compound?
A: 66.8%

Q: And the viability, T/C [6]?
A: 54%

Q: And the viability, T/C [7]?
A: 48.9%

Q: What about the viability, T/C [8] of the same compound?
A: 37.6%

Q: What about the viability, T/C (second compound 1 µM, first compound 0.000949 µM) of the same compound?
A: 76.9%

Q: What about the viability, T/C (second compound 1 µM, first compound 0.003 µM) of the same compound?
A: 66.5%

Q: And the viability, T/C [9]?
A: 63.6%

Q: What about the viability, T/C [10] of the same compound?
A: 60.1%

Q: What about the viability, T/C [11] of the same compound?
A: 51.9%

Q: What about the viability, T/C [12] of the same compound?
A: 40.3%

Q: And the viability, T/C (second compound 3.16 µM, first compound 0.000949 µM)?
A: 81.5%

Q: What about the viability, T/C (second compound 3.16 µM, first compound 0.003 µM) of the same compound?
A: 80.6%

Q: And the viability, T/C [13]?
A: 87.3%

Q: What about the viability, T/C [14] of the same compound?
A: 66%

Q: And the viability, T/C [15]?
A: 57.1%

Q: What about the viability, T/C [16] of the same compound?
A: 41.4%

Q: What about the viability, T/C (second compound 10 µM, first compound 0.000949 µM) of the same compound?
A: 87%

Q: What about the viability, T/C (second compound 10 µM, first compound 0.003 µM) of the same compound?
A: 78.3%

Q: And the viability, T/C [17]?
A: 83.9%

Q: What about the viability, T/C [18] of the same compound?
A: 68.9%

Q: What about the viability, T/C [19] of the same compound?
A: 59%

Q: What about the viability, T/C [20] of the same compound?
A: 51.5%
